Assay results published in PubChem BioAssay AID296 (DTP/NCI, 2004).
Where “and” joins values, the source holds several entries; their conditions need not be identical. Equal entries are not always repeated. Records with an inconclusive call do not appear.

Test system: MX-1 breast xenograft, nude mice, tumor weight T/C
Assay: NCI In Vivo Anticancer Drug Screen. Data for tumor model Human Mammary Carcinoma MX-1 Xenograft (intrarenal inoculation) in NU/NU Swiss (nude) mice
Conditions: endpoint: mean tumor weight change, higher = larger tumour
Experimental: The antitumor activity of compounds was measured in mice bearing transplantable tumors. Survival or tumor size were measured and the results are expressed as the measurement made in the treated group (T) divided by the measurement made in the vehicle treated control group (C). The tumor model used in this assay is Human Mammary Carcinoma MX-1 Xenograft (intrarenal inoculation) in NU/NU Swiss (nude) mice

[1] = dose: 18.75 mg/kg/injection, schedule: Q04DX003 (sc), vehicle: suspension in saline
[2] = dose: 300.0 mg/kg/injection, schedule: Q04DX003 (sc), vehicle: Klucel (hydroxypropylcellulose) (HPC)
[3] = dose: 600.0 mg/kg/injection, schedule: Q04DX003 (sc), vehicle: Klucel (hydroxypropylcellulose) (HPC)
[4] = dose: 1200.0 mg/kg/injection, schedule: Q04DX003 (sc), vehicle: Klucel (hydroxypropylcellulose) (HPC)
[5] = dose: 2400.0 mg/kg/injection, schedule: Q04DX003 (sc), vehicle: Klucel (hydroxypropylcellulose) (HPC)

Structure (SMILES): Cn1cnc([N+](=O)[O-])c1SCC(=O)O
- T/C (dose: 300.0 mg/kg/injection, schedule: Q04DX003 (sc), vehicle: saline): 80 % of control
- T/C (dose: 600.0 mg/kg/injection, schedule: Q04DX003 (sc), vehicle: saline): 43 % of control
- T/C (dose: 1200.0 mg/kg/injection, schedule: Q04DX003 (sc), vehicle: saline): 88 % of control
- T/C (dose: 2400.0 mg/kg/injection, schedule: Q04DX003 (sc), vehicle: saline): 71 % of control

Structure (SMILES): O=CC(O)C(O)C(O)C(O)C(=O)O.[NH-]C1CCCCC1[NH-].[Pt+2] (stereo unspecified)
- T/C (dose: 9.38 mg/kg/injection, schedule: Q04DX003 (sc), vehicle: suspension in saline): 48 % of control
- T/C [1]: 28 % of control

Structure (SMILES): CO[C@H](C(=O)[C@@H](O)[C@@H](C)O)[C@@H]1Cc2cc3cc(OC4CC(OC5CC(O)C(O)C(C)O5)C(O)C(C)O4)c(C)c(O)c3c(O)c2C(=O)[C@H]1OC1CC(OC2CC(OC3CC(C)(O)C(O)C(C)O3)C(O)C(C)O2)C(O)C(C)O1 (stereo partly specified)
- T/C (dose: 0.25 mg/kg/injection, schedule: Q01DX010 (sc), vehicle: saline): 86 % of control
- T/C (dose: 0.25 mg/kg/injection, schedule: Q04DX003 (sc), vehicle: saline): 105 % of control
- T/C (dose: 0.5 mg/kg/injection, schedule: Q04DX003 (sc), vehicle: saline): 72 % of control
- T/C (dose: 0.75 mg/kg/injection, schedule: Q04DX003 (sc), vehicle: saline): 66 % of control
- T/C (dose: 1.0 mg/kg/injection, schedule: Q04DX003 (sc), vehicle: saline): 42 % of control
- T/C (dose: 1.5 mg/kg/injection, schedule: Q04DX003 (sc), vehicle: saline): 26 % of control
- T/C (dose: 2.0 mg/kg/injection, schedule: Q01DX010 (sc), vehicle: saline): -98 % of control
- T/C (dose: 2.0 mg/kg/injection, schedule: Q04DX003 (sc), vehicle: saline): -34 % of control

Structure (SMILES): NCc1cc(O)c(O)c(O)c1
- T/C (dose: 150.0 mg/kg/injection, schedule: Q04DX003 (ip), vehicle: saline): 115 % of control
- T/C (dose: 300.0 mg/kg/injection, schedule: Q04DX003 (ip), vehicle: saline): 91 % of control
- T/C (dose: 600.0 mg/kg/injection, schedule: Q04DX003 (ip), vehicle: saline): 88 % of control

Structure (SMILES): CC(Cc1ccc(O)c(O)c1)C(C)Cc1ccc(O)c(O)c1 (stereo unspecified)
- T/C (dose: 150.0 mg/kg/injection, schedule: Q04DX003 (sc), vehicle: saline + alcohol): 109 % of control
- T/C (dose: 300.0 mg/kg/injection, schedule: Q04DX003 (sc), vehicle: saline + alcohol): 92 % of control
- T/C (dose: 1200.0 mg/kg/injection, schedule: Q04DX003 (sc), vehicle: saline + alcohol): 92 % of control

Structure (SMILES): CNC(=O)SCC(N)C(=O)O (stereo unspecified)
- T/C (dose: 112.5 mg/kg/injection, schedule: Q04DX003 (ip), vehicle: saline): 86 % of control
- T/C (dose: 225.0 mg/kg/injection, schedule: Q04DX003 (ip), vehicle: saline): 67 % of control
- T/C (dose: 450.0 mg/kg/injection, schedule: Q04DX003 (ip), vehicle: saline): 27 % of control
- T/C (dose: 900.0 mg/kg/injection, schedule: Q04DX003 (ip), vehicle: saline): 17 % of control

Structure (SMILES): C=C1C(=O)O[C@@H]2[C@H](O)[C@@H](C)[C@@H]3C=CC(=O)[C@@]3(C)[C@H](OC(=O)C=C(C)C)[C@H]12
- T/C (dose: 9.38 mg/kg/injection, schedule: Q04DX003 (sc), vehicle: saline with Tween-80): 65 % of control
- T/C (dose: 18.75 mg/kg/injection, schedule: Q04DX003 (sc), vehicle: saline with Tween-80): 105 % of control
- T/C (dose: 37.5 mg/kg/injection, schedule: Q04DX003 (sc), vehicle: saline with Tween-80): 84 % of control

Structure (SMILES): [CH3][Sn]([CH3])([Cl])[S]CCN
- T/C [1]: 77 % of control
- T/C (dose: 75.0 mg/kg/injection, schedule: Q04DX003 (sc), vehicle: suspension in saline): 157 % of control

Structure (SMILES): CCC1(O)CC2CN(CCc3c([nH]c4ccccc34)C(C(=O)OC)(c3cc4c(cc3OC)N(C)C3C(O)(C(=O)NCCSSCCNC(=O)C5(O)C(O)C6(CC)C=CCN7CCC8(c9cc(C%10(C(=O)OC)CC%11CN(CCc%12c%10[nH]c%10ccccc%12%10)CC(O)(CC)C%11)c(OC)cc9N(C)C58)C76)C(O)C5(CC)C=CCN6CCC43C65)C2)C1 (stereo unspecified)
- T/C (dose: 1.5 mg/kg/injection, schedule: Q04DX003 (sc), vehicle: suspension in saline): 101 % of control
- T/C (dose: 3.0 mg/kg/injection, schedule: Q04DX003 (sc), vehicle: suspension in saline): 102 % of control
- T/C (dose: 6.0 mg/kg/injection, schedule: Q04DX003 (sc), vehicle: suspension in saline): 70 % of control
- T/C (dose: 12.0 mg/kg/injection, schedule: Q04DX003 (sc), vehicle: saline): 1 % of control
- T/C (dose: 12.0 mg/kg/injection, schedule: Q04DX003 (sc), vehicle: suspension in saline): 73 % of control

Structure (SMILES): Cc1cc(Nc2ccc3c(c2)OCO3)c2cc3c(cc2n1)OCO3
- T/C [2]: 61 % of control
- T/C [3]: 81 % of control
- T/C [4]: 81 % of control
- T/C [5]: 92 % of control

Structure (SMILES): Cc1ccc(S(=O)(=O)OCOS(=O)(=O)c2ccc(C)cc2)cc1
- T/C [2]: 89 % of control
- T/C [3]: 98 % of control
- T/C [4]: 85 % of control
- T/C [5]: 63 % of control

Structure (SMILES): ClCCCN1CCN(CCCl)CC1
- T/C (dose: 7.5 mg/kg/injection, schedule: Q04DX003 (sc), vehicle: saline): 8 % of control and 10 % of control and 31 % of control

Structure (SMILES): C[C@@]1(CO)[C@H](O)CC[C@@]2(C)[C@H]1CC[C@H]1C[C@@H]3C[C@@]12CC[C@@]3(O)COC(=O)CN
- T/C (dose: 125.0 micrograms/kg/injection, schedule: Q04DX003 (sc), vehicle: saline + alcohol): 102 % of control
- T/C (dose: 250.0 micrograms/kg/injection, schedule: Q04DX003 (sc), vehicle: saline + alcohol): 34 % of control
- T/C (dose: 500.0 micrograms/kg/injection, schedule: Q04DX003 (sc), vehicle: saline + alcohol): 55 % of control
- T/C (dose: 1000.0 micrograms/kg/injection, schedule: Q04DX003 (sc), vehicle: saline + alcohol): 70 % of control

Structure (SMILES): CC(=S)NC(O)C(=O)c1ccccc1 (stereo unspecified)
- T/C (dose: 200.0 mg/kg/injection, schedule: Q04DX003 (sc), vehicle: saline with Tween-80): 163 % of control
- T/C (dose: 400.0 mg/kg/injection, schedule: Q04DX003 (sc), vehicle: saline with Tween-80): 122 % of control
- T/C (dose: 800.0 mg/kg/injection, schedule: Q04DX003 (sc), vehicle: saline with Tween-80): 152 % of control
- T/C (dose: 1600.0 mg/kg/injection, schedule: Q04DX003 (sc), vehicle: saline with Tween-80): 123 % of control

Structure (SMILES): Nc1n[nH]c(N)n1
- T/C (dose: 200.0 mg/kg/injection, schedule: Q01DX010 (sc), vehicle: saline): 92 % of control
- T/C (dose: 400.0 mg/kg/injection, schedule: Q01DX010 (sc), vehicle: saline): 94 % of control
- T/C (dose: 800.0 mg/kg/injection, schedule: Q01DX010 (sc), vehicle: saline): 111 % of control

Structure (SMILES): Cc1cc(N(CC(C)Br)CC(C)Br)ccc1N=Nc1ccccc1C(=O)O (stereo unspecified)
- T/C (dose: 3.13 mg/kg/injection, schedule: Q01DX010 (sc), vehicle: saline with Tween-80): 10 % of control and 12 % of control
- T/C (dose: 6.25 mg/kg/injection, schedule: Q01DX010 (sc), vehicle: saline with Tween-80): -46 % of control
- T/C (dose: 12.5 mg/kg/injection, schedule: Q01DX010 (sc), vehicle: saline with Tween-80): -79 % of control

Structure (SMILES): CC1(C)N=C(N)N=C(N)N1c1ccc(CCCCc2ccc(S(=O)(=O)F)cc2Cl)c(Cl)c1
- T/C (dose: 12.5 mg/kg/injection, schedule: Q01DX010 (sc), vehicle: suspension in saline): 87 % of control
- T/C (dose: 25.0 mg/kg/injection, schedule: Q01DX010 (sc), vehicle: suspension in saline): 77 % of control
- T/C (dose: 50.0 mg/kg/injection, schedule: Q01DX010 (sc), vehicle: suspension in saline): 57 % of control

Structure (SMILES): NC1=NCN(C2OC(CO)C(O)C2O)C(=O)N1 (stereo unspecified)
- T/C (dose: 12.5 mg/kg/injection, schedule: Q01DX010 (sc), vehicle: saline): 86 % of control
- T/C (dose: 25.0 mg/kg/injection, schedule: Q01DX010 (sc), vehicle: saline): 32 % of control and 42 % of control
- T/C (dose: 25.0 mg/kg/injection, schedule: Q04DX003 (sc), vehicle: saline): 34 % of control
- T/C (dose: 50.0 mg/kg/injection, schedule: Q01DX010 (sc), vehicle: saline): 3 % of control and 4 % of control
- T/C (dose: 75.0 mg/kg/injection, schedule: Q04DX003 (sc), vehicle: saline): 55 % of control
- T/C (dose: 100.0 mg/kg/injection, schedule: Q01DX010 (sc), vehicle: saline): 6 % of control
- T/C (dose: 100.0 mg/kg/injection, schedule: Q04DX003 (sc), vehicle: saline): 14 % of control and 30 % of control
- T/C (dose: 200.0 mg/kg/injection, schedule: Q04DX003 (sc), vehicle: saline): 8 % of control
- T/C (dose: 400.0 mg/kg/injection, schedule: Q04DX003 (sc), vehicle: saline): 2 % of control

Structure (SMILES): C=C(C)[C@H]1Cc2c(ccc3c2O[C@@H]2COc4cc(OC)c(OC)cc4[C@@H]2C3=O)O1
- T/C (dose: 4.0 mg/kg/injection, schedule: Q01DX010 (sc), vehicle: saline with Tween-80): 94 % of control
- T/C (dose: 8.0 mg/kg/injection, schedule: Q01DX010 (sc), vehicle: saline with Tween-80): 80 % of control
